Tests used:
[1] = system: apoptosis induced by anti-convulsants such as phenytoin and carbamazepine; conditions: tissue culture model; only in a dose range well above the plasma levels considered therapeutic in humans; Nonaka et al., 1998; cited from earlier work
AKT = conditions: infant mice; within 30 minutes after administration of ethanol
ERK = conditions: infant mice; within less than 30 minutes after ethanol administration
immature brains = conditions: Ikonomidou et al., 2000; cited from earlier work
[2] = system: neuroapoptosis triggered by a cocktail of anesthetic drugs; conditions: immature rats undergoing anesthesia; subcutaneous; Beals et al, 2003; cited from earlier work

[Li] [Lithium]
antiapoptotic action [1]: act as an antiapoptotic agent

CCO [ethanol]
activated isoform of AKT (AKT): marked suppression
activated isoforms of ERK (ERK): rapid decrease
neuroapoptosis responses in immature brains (immature brains): triggers especially severe neuroapoptosis responses

COc1ccc2[nH]cc(CCNC(C)=O)c2c1 [melatonin]
protection against pathological neuroapoptosis (effects of pretreatment) [2]: only modest

Reference: patent publication EP1830856B1, “PREVENTING PATHOLOGICAL INCREASES IN THE RATE OF NERVE CELL SUICIDE IN IMMATURE NERVOUS SYSTEMS” (Olney, John W., priority 2004, dated 2006)
